Measured values as given in PubChem BioAssay AID1963441 (Molecular Pharmacology Branch, DTP, NCI, 2024).
Where “and” joins values, the source holds several entries; their conditions need not be identical. Identical values can stand only once.

Tested on: NCI-H1876 complex spheroid growth, % test/control
Assay: Anticancer human tumor NCI-H1876 cell line growth inhibition [Asc];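 also: compound exposure lasted 7 days starting three days after seeding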;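 as to viability, T/C: 100% = DMSO vehicle control wells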
Conditions: for viability, T/C: stronger effect = lower value
Procedure, shortened: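 Complex spheroids combining tumor cells with HUVEC endothelial cells and human MSCs, at 37 degrees C, 5% CO2; agents tested alone or combined, half-log dilutions from at or near clinical Cmax, or 10 microM if Cmax unknown.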

[1] = curve of first compound, second compound 0.0316 µM
[2] = curve of first compound, second compound 0.1 µM
[3] = curve of first compound, second compound 0.316 µM
[4] = curve of first compound, second compound 1 µM
[5] = second compound 0.0316 µM, first compound 0.00316 µM
[6] = second compound 0.0316 µM, first compound 0.01 µM
[7] = second compound 0.0316 µM, first compound 0.0316 µM
[8] = second compound 0.0316 µM, first compound 0.1 µM
[9] = second compound 0.1 µM, first compound 0.00316 µM
[10] = second compound 0.1 µM, first compound 0.01 µM
[11] = second compound 0.1 µM, first compound 0.0316 µM
[12] = second compound 0.1 µM, first compound 0.1 µM
[13] = second compound 0.316 µM, first compound 0.00316 µM
[14] = second compound 0.316 µM, first compound 0.01 µM
[15] = second compound 0.316 µM, first compound 0.0316 µM
[16] = second compound 0.316 µM, first compound 0.1 µM
[17] = second compound 1 µM, first compound 0.00316 µM
[18] = second compound 1 µM, first compound 0.01 µM
[19] = second compound 1 µM, first compound 0.0316 µM
[20] = second compound 1 µM, first compound 0.1 µM

O=C(c1ccc(F)c(F)c1Nc1ccc(I)cc1F)N1CC(O)([C@@H]2CCCCN2)C1 + Cc1c(S(C)(=O)=O)c(-c2cc(F)cc(N3CCN(c4ccc(NS(=O)(=O)c5ccc(NC(CCN6CCC(C(=O)OCCCP(=O)(O)O)CC6)CSc6ccccc6)c(S(=O)(=O)C(F)(F)F)c5)cc4)CC3)c2)c(-c2ccc(Cl)cc2)n1C(C)C
IC50 [1]: > 1000 nM | IC50 [2]: > 1000 nM | IC50 [3]: > 1000 nM | IC50 [4]: > 1000 nM | IC50 (curve of first compound, second compound 3.16 µM): > 1000 nM | IC50 (curve of first compound, second compound 10 µM): > 1000 nM | viability, T/C [5]: 102% | viability, T/C [6]: 98.9% | viability, T/C [7]: 108% | viability, T/C [8]: 92.3% | viability, T/C (second compound 0.0316 µM, first compound 0.316 µM): 85.3% | viability, T/C (second compound 0.0316 µM, first compound 1 µM): 71.7% | viability, T/C [9]: 95.4% | viability, T/C [10]: 97.5% | viability, T/C [11]: 94.6% | viability, T/C [12]: 97.6% | viability, T/C (second compound 0.1 µM, first compound 0.316 µM): 86.9% | viability, T/C (second compound 0.1 µM, first compound 1 µM): 81% | viability, T/C [13]: 96.5% | viability, T/C [14]: 102% | viability, T/C [15]: 89.5% | viability, T/C [16]: 102% | viability, T/C (second compound 0.316 µM, first compound 0.316 µM): 84.2% | viability, T/C (second compound 0.316 µM, first compound 1 µM): 78.4% | viability, T/C [17]: 101% | viability, T/C [18]: 102% | viability, T/C [19]: 93.9% | viability, T/C [20]: 92.1% | viability, T/C (second compound 1 µM, first compound 0.316 µM): 92% | viability, T/C (second compound 1 µM, first compound 1 µM): 77.1% | viability, T/C (second compound 3.16 µM, first compound 0.00316 µM): 109% | viability, T/C (second compound 3.16 µM, first compound 0.01 µM): 98.6% | viability, T/C (second compound 3.16 µM, first compound 0.0316 µM): 91% | viability, T/C (second compound 3.16 µM, first compound 0.1 µM): 85.8% | viability, T/C (second compound 3.16 µM, first compound 0.316 µM): 94.2% | viability, T/C (second compound 3.16 µM, first compound 1 µM): 74.9% | viability, T/C (second compound 10 µM, first compound 0.00316 µM): 103% | viability, T/C (second compound 10 µM, first compound 0.01 µM): 92.2% | viability, T/C (second compound 10 µM, first compound 0.0316 µM): 92.5% | viability, T/C (second compound 10 µM, first compound 0.1 µM): 102% | viability, T/C (second compound 10 µM, first compound 0.316 µM): 93.5% | viability, T/C (second compound 10 µM, first compound 1 µM): 79.5%

Cn1ncnc1[C@H]1c2n[nH]c(=O)c3cc(F)cc(c23)N[C@@H]1c1ccc(F)cc1 + CNC(C)C(=O)NC1CN(S(=O)(=O)c2cccc(S(=O)(=O)N3CCC4CCC(C(=O)NC(c5ccccc5)c5ccccc5)N4C(=O)C(NC(=O)C(C)NC)C3)c2)CCC2CCC(C(=O)NC(c3ccccc3)c3ccccc3)N2C1=O
IC50 (curve of first compound, second compound 0.00316 µM): > 100 nM | IC50 (curve of first compound, second compound 0.01 µM): > 100 nM | IC50 [1]: > 100 nM | IC50 [2]: > 100 nM | IC50 [3]: > 100 nM | IC50 [4]: > 100 nM | viability, T/C (second compound 0.00316 µM, first compound 0.000316 µM): 72.3% | viability, T/C (second compound 0.00316 µM, first compound 0.001 µM): 63.5% | viability, T/C (second compound 0.00316 µM, first compound 0.00316 µM): 68.2% | viability, T/C (second compound 0.00316 µM, first compound 0.01 µM): 55.5% | viability, T/C (second compound 0.00316 µM, first compound 0.0316 µM): 51.2% | viability, T/C (second compound 0.00316 µM, first compound 0.1 µM): 54.3% | viability, T/C (second compound 0.01 µM, first compound 0.000316 µM): 92.8% | viability, T/C (second compound 0.01 µM, first compound 0.001 µM): 103% | viability, T/C (second compound 0.01 µM, first compound 0.00316 µM): 87.6% | viability, T/C (second compound 0.01 µM, first compound 0.01 µM): 95.2% | viability, T/C (second compound 0.01 µM, first compound 0.0316 µM): 96.5% | viability, T/C (second compound 0.01 µM, first compound 0.1 µM): 95.8% | viability, T/C (second compound 0.0316 µM, first compound 0.000316 µM): 94.8% | viability, T/C (second compound 0.0316 µM, first compound 0.001 µM): 99% | viability, T/C [5]: 104% | viability, T/C [6]: 112% | viability, T/C [7]: 109% | viability, T/C [8]: 103% | viability, T/C (second compound 0.1 µM, first compound 0.000316 µM): 105% | viability, T/C (second compound 0.1 µM, first compound 0.001 µM): 102% | viability, T/C [9]: 97.3% | viability, T/C [10]: 91.5% | viability, T/C [11]: 97.4% | viability, T/C [12]: 102% | viability, T/C (second compound 0.316 µM, first compound 0.000316 µM): 97.7% | viability, T/C (second compound 0.316 µM, first compound 0.001 µM): 96.7% | viability, T/C [13]: 93.4% | viability, T/C [14]: 110% | viability, T/C [15]: 115% | viability, T/C [16]: 97.3% | viability, T/C (second compound 1 µM, first compound 0.000316 µM): 114% | viability, T/C (second compound 1 µM, first compound 0.001 µM): 99.1% | viability, T/C [17]: 90.1% | viability, T/C [18]: 116% | viability, T/C [19]: 103% | viability, T/C [20]: 104%

NC(=O)C(=Cn1cnc(-c2cc(C(F)(F)F)cc(C(F)(F)F)c2)n1)c1cncnc1
viability, T/C (compound 0.000949 µM): 104% and 99.4% (2×) | viability, T/C (compound 0.003 µM): 90.3% and 91.5% and 85.9% | viability, T/C (compound 0.00949 µM): 93.9% and 92.5% and 90.8% | viability, T/C (compound 0.03 µM): 92.4% and 98.6% and 97.9% | viability, T/C (compound 0.0949 µM): 97.5% and 80.5% and 104% | viability, T/C (compound 0.3 µM): 74.8% and 77.2% and 94.8% | IC50 (curve of compound): > 300 nM

NC(=O)C(=Cn1cnc(-c2cc(C(F)(F)F)cc(C(F)(F)F)c2)n1)c1cncnc1 + CCN1C(C(=O)NC23CCC(C(=O)O)(CC2)CC3)C(c2cccc(Cl)c2F)C2(C(=O)Nc3cc(Cl)ccc32)C12CCCCC2
IC50 (curve of first compound, second compound 0.00949 µM): > 300 nM | IC50 (curve of first compound, second compound 0.03 µM): > 300 nM | IC50 (curve of first compound, second compound 0.0949 µM): > 300 nM | IC50 (curve of first compound, second compound 0.3 µM): > 300 nM | IC50 (curve of first compound, second compound 0.949 µM): > 300 nM | IC50 (curve of first compound, second compound 3 µM): > 300 nM | viability, T/C (second compound 0.00949 µM, first compound 0.000949 µM): 104% | viability, T/C (second compound 0.00949 µM, first compound 0.003 µM): 102% | viability, T/C (second compound 0.00949 µM, first compound 0.00949 µM): 115% | viability, T/C (second compound 0.00949 µM, first compound 0.03 µM): 94% | viability, T/C (second compound 0.00949 µM, first compound 0.0949 µM): 100% | viability, T/C (second compound 0.00949 µM, first compound 0.3 µM): 64.8% | viability, T/C (second compound 0.03 µM, first compound 0.000949 µM): 101% | viability, T/C (second compound 0.03 µM, first compound 0.003 µM): 99.3% | viability, T/C (second compound 0.03 µM, first compound 0.00949 µM): 96.6% | viability, T/C (second compound 0.03 µM, first compound 0.03 µM): 101% | viability, T/C (second compound 0.03 µM, first compound 0.0949 µM): 96.2% | viability, T/C (second compound 0.03 µM, first compound 0.3 µM): 63.7% | viability, T/C (second compound 0.0949 µM, first compound 0.000949 µM): 101% | viability, T/C (second compound 0.0949 µM, first compound 0.003 µM): 102% | viability, T/C (second compound 0.0949 µM, first compound 0.00949 µM): 100% | viability, T/C (second compound 0.0949 µM, first compound 0.03 µM): 98.5% | viability, T/C (second compound 0.0949 µM, first compound 0.0949 µM): 102% | viability, T/C (second compound 0.0949 µM, first compound 0.3 µM): 71.2% | viability, T/C (second compound 0.3 µM, first compound 0.000949 µM): 103% | viability, T/C (second compound 0.3 µM, first compound 0.003 µM): 104% | viability, T/C (second compound 0.3 µM, first compound 0.00949 µM): 103% | viability, T/C (second compound 0.3 µM, first compound 0.03 µM): 103% | viability, T/C (second compound 0.3 µM, first compound 0.0949 µM): 105% | viability, T/C (second compound 0.3 µM, first compound 0.3 µM): 69.6% | viability, T/C (second compound 0.949 µM, first compound 0.000949 µM): 124% | viability, T/C (second compound 0.949 µM, first compound 0.003 µM): 104% | viability, T/C (second compound 0.949 µM, first compound 0.00949 µM): 104% | viability, T/C (second compound 0.949 µM, first compound 0.03 µM): 114% | viability, T/C (second compound 0.949 µM, first compound 0.0949 µM): 101% | viability, T/C (second compound 0.949 µM, first compound 0.3 µM): 68.5% | viability, T/C (second compound 3 µM, first compound 0.000949 µM): 109% | viability, T/C (second compound 3 µM, first compound 0.003 µM): 97.4% | viability, T/C (second compound 3 µM, first compound 0.00949 µM): 104% | viability, T/C (second compound 3 µM, first compound 0.03 µM): 94.8% | viability, T/C (second compound 3 µM, first compound 0.0949 µM): 96.1% | viability, T/C (second compound 3 µM, first compound 0.3 µM): 55%
